Reference: the NIST ThermoML archive (doi:10.1016/j.fluid.2019.05.003)

Assay: xn = mol fraction of the nth substance listed
Conditions: 101 kPa, Liquid; for mass density: Vibrating tube method; for viscosity: Falling or rolling sphere viscometry

CC[n+]1ccccc1.[Br-] [1-ethylpyridinium bromide] + O
Conditions	mass density [kg/m3]	viscosity [mPa·s]
323.15 K, x1 = 0.027	1058.9	–
323.15 K, x1 = 0.049	1100.6	–
323.15 K, x1 = 0.063	1125.8	–
323.15 K, x1 = 0.086	1159.7	–
323.15 K, x1 = 0.101	1179	–
323.15 K, x1 = 0.147	1227.7	–
323.15 K, x1 = 0.184	1257.9	–
323.15 K, x1 = 0.213	1277.5	–
323.15 K, x1 = 0.25	1298.1	–
323.15 K, x1 = 0.299	1319.8	–
323.15 K, x1 = 0.341	1335	–
323.15 K, x1 = 0.401	1353.7	–
323.15 K, x1 = 0.451	1364.3	–
328.15 K, x1 = 0.027	1056.7	0.695
328.15 K, x1 = 0.049	1097.6	0.846
328.15 K, x1 = 0.063	1122.7	0.961
328.15 K, x1 = 0.086	1156.6	1.18
328.15 K, x1 = 0.101	1175.8	1.332
328.15 K, x1 = 0.147	1224.4	1.9
328.15 K, x1 = 0.184	1254.4	2.439
328.15 K, x1 = 0.213	1274	2.977
328.15 K, x1 = 0.25	1294.7	3.973
328.15 K, x1 = 0.299	1316.3	4.663
328.15 K, x1 = 0.341	1331.6	5.733
328.15 K, x1 = 0.401	1350.2	8.204
328.15 K, x1 = 0.451	1360.8	10.13
333.15 K, x1 = 0.027	1054.6	0.644
333.15 K, x1 = 0.049	1095.3	0.787
333.15 K, x1 = 0.063	1119.5	0.889
333.15 K, x1 = 0.086	1153.8	1.088
333.15 K, x1 = 0.101	1172.5	1.222
333.15 K, x1 = 0.147	1221	1.737
333.15 K, x1 = 0.184	1251	2.216
333.15 K, x1 = 0.213	1270.6	2.698
333.15 K, x1 = 0.25	1291.2	3.554
333.15 K, x1 = 0.299	1312.9	4.186
333.15 K, x1 = 0.341	1328.1	5.129
333.15 K, x1 = 0.401	1346.8	7.29
333.15 K, x1 = 0.451	1357.4	8.99
338.15 K, x1 = 0.027	1052.4	0.612
338.15 K, x1 = 0.049	1092.6	0.734
338.15 K, x1 = 0.063	1116.8	0.825
338.15 K, x1 = 0.086	1150.9	1.006
338.15 K, x1 = 0.101	1169.1	1.118
338.15 K, x1 = 0.147	1217.5	1.582
338.15 K, x1 = 0.184	1247.5	2.019
338.15 K, x1 = 0.213	1267.1	2.42
338.15 K, x1 = 0.25	1287.7	3.118
338.15 K, x1 = 0.299	1309.4	3.788
338.15 K, x1 = 0.341	1324.7	4.616
338.15 K, x1 = 0.401	1343.4	6.5
338.15 K, x1 = 0.451	1354	8.008
343.15 K, x1 = 0.027	1050.3	0.58
343.15 K, x1 = 0.049	1089.9	0.689
343.15 K, x1 = 0.063	1113.8	0.771
343.15 K, x1 = 0.086	1147.9	0.941
343.15 K, x1 = 0.101	1166.3	1.045
343.15 K, x1 = 0.147	1214	1.465
343.15 K, x1 = 0.184	1244	1.855
343.15 K, x1 = 0.213	1263.5	2.245
343.15 K, x1 = 0.25	1284.2	2.805
343.15 K, x1 = 0.299	1305.9	3.416
343.15 K, x1 = 0.341	1321.2	4.159
343.15 K, x1 = 0.401	1339.9	6.011
343.15 K, x1 = 0.451	1350.6	7.3
348.15 K, x1 = 0.027	1048.2	0.549
348.15 K, x1 = 0.049	1087.2	0.649
348.15 K, x1 = 0.063	1110.9	0.724
348.15 K, x1 = 0.086	1144.9	0.886
348.15 K, x1 = 0.101	1163.2	0.982
348.15 K, x1 = 0.147	1211.1	1.355
348.15 K, x1 = 0.184	1240.4	1.706
348.15 K, x1 = 0.213	1260	2.06
348.15 K, x1 = 0.25	1280.6	2.589
348.15 K, x1 = 0.299	1302.4	3.124
348.15 K, x1 = 0.341	1317.7	3.785
348.15 K, x1 = 0.401	1336.5	5.338
348.15 K, x1 = 0.451	1347.1	6.657
